experiment: Effect on rate of GTP hydrolysis in the GTP binding protein ras p21

krel | SMILES
0.98 | CCC[C@H](N)C(=O)O
1.04 | C[C@H](N)C(=O)O
1.02 | CC(C)[C@H](N)C(=O)O

SMILES | krel
CNC[C@H](N)C(=O)O | 1
